Source: patent US5786486A, “Acrylamide derivatives and process for production thereof” (Kyorin Pharmaceutical Co., Ltd., priority 1994, dated 1998)
Converted amounts (≈) assume the structure as drawn.

How the values were obtained:
Colon 26 cells = assay: Antitumor effect in Colon 26-bearing mice; assay type: in vivo, CDF1 female mice; conditions: for Antitumor activity Colon-26 TGI % (tumor growth inhibition rate): Colon 26-bearing CDF1 mice, single dose via tail vein, tumor weighed one week after; for Chemotherapy index MTD/TGI50: ratio of maximum tolerant dose (mg/kg) to dose giving 50% tumor growth inhibition (mg/kg), colon26-bearing mice
Experimental: Antitumor effect in Colon 26-bearing mice:
Colon 26 cells 1×10^6 were transplanted into an axillary region of 8-week old CDF1 female mice (Japan SLC Inc., Hamamatsu) subcutaneously. Six days after the transplantation, when the tumor grew palpable, the compound was administered via the tail vein. One week after the administration, the tumor was removed and weighed. The antitumor activity was represented by tumor growth inhibition rate (TGI %=(1--T/C)×100) derived from the ratio (T/C) of the average tumor weight (T) of the compound-administered group to the average tumor weight (C) of the control group.

HeLa S3 cells = assay: HeLa Cell Growth Inhibition Activity (HeLa S3, MTT); assay type: cell-based; conditions: Homo sapiens, 72 hours exposure
Experimental: HeLa Cell Growth Inhibition Activity:
HeLa S3 cells were maintained as a monolayer culture in Eagle's minimal medium (Nissui Seiyaku K. K., Tokyo) containing […] glutamine, 100 μg/mL of kanamycin sulfate, and 10% inactivated fetal calt serum at 37° C. in a carbon dioxide incubator. The cells 1.8×10^3 were inoculated to a 96-well plate, and were exposed to the test compounds from the next day for 72 hours. Then, the viable cell numbers were measured by evaluating the ability to reduce 3-[4,5-dimethylthiazol-2-yl]-2,5-diphenyltetrazolium bromide (MTT) according to the Mosmann's method (Mosmann,T., J. Imunol. Meth., 65, 55-63, 1983).

| SMILES | Chemotherapy index MTD/TGI50 (Colon 26 cells) | IC50 (HeLa S3 cells) | also measured |
| --- | --- | --- | --- |
| COC(=O)c1c(C(F)(F)F)[nH]c2c(O)cc3c(c12)[C@H](CCl)CN3C(=O)/C=C/c1ccc(/C=C/C(=O)N2C[C@@H](CCl)c3c2cc(O)c2[nH]c(C(F)(F)F)c(C(=O)OC)c32)cc1 [Example 1, (S,S)-3,3'-[3,3'-(1,4-phenylenediacryloyl)]-bis[1-chloromethyl-5-hydroxy-7-trifluoromethyl-1,2,3,6-tetrahydropyrrolo[3,2-e]indole-8-methoxycarbonyl]] | 21.9 | 0.0031 ng/mL (≈ 0.00352 nM) | Antitumor activity Colon-26 TGI % (tumor growth inhibition rate) (Colon 26 cells; 7.81 μg/kg): 92% |
| COC(=O)c1c(C(F)(F)F)[nH]c2c(O)cc3c(c12)[C@H](CCl)CN3C(=O)/C=C/c1ccc(/C=C/C(=O)N2C[C@@H](CCl)c3c2cc(O)c2[nH]c(C(F)(F)F)c(C(=O)OC)c32)c2c(OC)ccc(OC)c12 [Example 3, (S,S)-3,3'-[3,3'-(5,8-dimethoxy-1,4-naphthalenediyl)diacryloyl]-bis[1-chloromethyl-5-hydroxy-7-trifluoromethyl-1,2,3,6-tetrahydropyrrolo [3,2-e]indole-8-methoxycarbonyl]] | – | 0.00934 ng/mL (≈ 0.00944 nM) | – |
| COC(=O)c1c(C(F)(F)F)[nH]c2c(O)cc3c(c12)[C@H](CCl)CN3C(=O)/C=C/c1ccc(/C=C/C(=O)N2C[C@@H](CCl)c3c2cc(O)c2[nH]c(C(F)(F)F)c(C(=O)OC)c32)c2c1OCCO2 [Example 4, (S,S)-3,3'-[3,3'-(2,3-(ethylenedioxy)-1,4-phenylene)diacryloyl]-bis[1-chloromethyl-5-hydroxy-7-trifluoromethyl-1,2,3,6-tetrahydropyrrolo [3,2-e]indole-8-methoxycarbonyl]] | 9 | 0.00276 ng/mL (≈ 0.00294 nM) | Antitumor activity Colon-26 TGI % (tumor growth inhibition rate) (Colon 26 cells; 0.488 μg/kg): 91% |
| COC(=O)c1c(C(F)(F)F)[nH]c2c(O)cc3c(c12)[C@H](CCl)CN3C(=O)/C=C/c1ccc(/C=C/C(=O)N2C[C@@H](CCl)c3c2cc(O)c2[nH]c(C(F)(F)F)c(C(=O)OC)c32)c2c1OCO2 [Example 5, (S,S)-3,3'-[3,3'-(2,3-(methylenedioxy)-1,4-phenylene)diacryloyl]-bis[1-chloromethyl-5-hydroxy-7-trifluoromethyl-1,2,3,6-tetrahydropyrrolo[3,2-e]indole-8-methoxycarbonyl]] | – | 0.00595 ng/mL (≈ 0.00644 nM) | Antitumor activity Colon-26 TGI % (tumor growth inhibition rate) (Colon 26 cells; 1.95 μg/kg): 90% |
| CCc1c(/C=C/C(=O)N2C[C@@H](CCl)c3c2cc(O)c2[nH]c(C(F)(F)F)c(C(=O)OC)c32)ccc(/C=C/C(=O)N2C[C@@H](CCl)c3c2cc(O)c2[nH]c(C(F)(F)F)c(C(=O)OC)c32)c1CC [Example 6, (S,S)-3,3'-[3,3'-(2,3-diethyl-1,4-phenylene)diacryloyl]-bis[1-chloromethyl-5-hydroxy-7-trifluoromethyl-1,2,3,6-tetrahydropyrrolo[3,2-e]indole-8-methoxycarbonyl]] | – | 0.0318 ng/mL (≈ 0.034 nM) | – |
| COC(=O)c1c(C(F)(F)F)[nH]c2c(O)cc3c(c12)[C@H](CCl)CN3C(=O)/C=C/c1ccc(/C=C/C(=O)N2C[C@@H](CCl)c3c2cc(O)c2[nH]c(C(F)(F)F)c(C(=O)OC)c32)c(OC)c1OC [Example 8, (S,S)-3,3'-[3,3 '-(2,3-dimethoxy-1,4-phenylene)diacryloyl]-bis[1-chloromethy 1-5-hydroxy-7-trifluoromethyl-1,2,3,6-tetrahydropyrrolo[3,2-e]indole-8-methoxycarbonyl]] | 4.6 | 0.00158 ng/mL (≈ 0.00168 nM) | Antitumor activity Colon-26 TGI % (tumor growth inhibition rate) (Colon 26 cells; 0.977 μg/kg): 89% |
| COC(=O)c1c(C(F)(F)F)[nH]c2c(O)cc3c(c12)[C@H](CCl)CN3C(=O)/C=C/c1ccc(/C=C/C(=O)N2C[C@@H](CCl)c3c2cc(O)c2[nH]c(C(F)(F)F)c(C(=O)OC)c32)c2ccccc12 [Example 10, (S,S)-3,3'-[3,3'-(1,4-naphthalenediyl)diacryloyl]-bis[1-chloromethyl-5-hydroxy-7-trifluoromethyl-1,2,3,6-tetrahydropyrrolo[3,2-e]indole-8-methoxycarbonyl]] | 7.4 | 0.011 ng/mL (≈ 0.0118 nM) | Antitumor activity Colon-26 TGI % (tumor growth inhibition rate) (Colon 26 cells; 0.977 μg/kg): 85% |
| COC(=O)c1c(C(F)(F)F)[nH]c2c(O)cc3c(c12)[C@H](CCl)CN3C(=O)/C=C/c1ccc(-c2ccc(/C=C/C(=O)N3C[C@@H](CCl)c4c3cc(O)c3[nH]c(C(F)(F)F)c(C(=O)OC)c43)cn2)nc1 [Example 13, (S,S)-3,3'-[3,3'-(2,2'-bipyridyl-5,5'-diyl)diacryloyl]-bis[1-chloromethyl-5-hydroxy-7-trifluoromethyl-1,2,3,6-tetrahydropyrrolo [3,2-e]indole-8-methoxycarbonyl]] | 3.6 | 0.0198 ng/mL (≈ 0.0207 nM) | Antitumor activity Colon-26 TGI % (tumor growth inhibition rate) (Colon 26 cells; 3.91 μg/kg): 88% |
| COC(=O)c1c(C)[nH]c2c(O)cc3c(c12)[C@H](CCl)CN3C(=O)/C=C/c1ccc(/C=C/C(=O)N2C[C@@H](CCl)c3c2cc(O)c2[nH]c(C)c(C(=O)OC)c32)cc1 [Example 18, (S,S)-3,3'-[3,3'-(1,4-phenylene)diacryloyl]-bis[1-chloromethyl-5-hydroxy-7-methyl-1,2,3,6-tetrahydropyrrolo [3,2-e]indole-8-methoxycarbonyl]] | – | 0.000459 ng/mL (≈ 0.000595 nM) | – |
| Cc1c[nH]c2c(O)cc3c(c12)[C@H](CCl)CN3C(=O)/C=C/c1ccc(/C=C/C(=O)N2C[C@@H](CCl)c3c2cc(O)c2[nH]cc(C)c32)cc1 [Example 19, (S,S)-3,3'-[3,3'-(1,4-phenylene)diacryloy]-bis[1-chloromethyl-5-hydroxy-8-methyl-1,2,3,6-tetrahydropyrrolo[3,2-e]indole]] | – | 0.0134 ng/mL (≈ 0.0204 nM) | – |
| O=C(/C=C/c1ccc(/C=C/C(=O)N2C[C@@H](CCl)c3c2cc(O)c2[nH]c4ccccc4c32)cc1)N1C[C@@H](CCl)c2c1cc(O)c1[nH]c3ccccc3c21 [Example 20, (S,S)-3,3'-[3,3'-(1,4-phenylene)diacryloyl]-bis[1-chloromethyl-5-hydroxy-1,2-dihydropyrrolo[3,2-a]carbazole]] | – | 0.0716 ng/mL (≈ 0.0984 nM) | – |
| COC(=O)c1c[nH]c2c(O)cc3c(c12)[C@H](CCl)CN3C(=O)/C=C/c1ccc(/C=C/C(=O)N2C[C@@H](CCl)c3c2cc(O)c2[nH]cc(C(=O)OC)c32)cc1 [Example 21, (S,S)-3,3'-[3,3'-(1,4-phenylene)diacryloy]-bis[1-chloromethyl-5-hydroxy-1,2,3,6-tetrahydropyrrolo[3,2-e]indole-8-methoxycarbonyl]] | – | 0.00035 ng/mL (≈ 0.000471 nM) | – |
| COC(=O)c1cc2c3c(cc(O)c2[nH]1)N(C(=O)/C=C/c1ccc(/C=C/C(=O)N2C[C@@H](CCl)c4c2cc(O)c2[nH]c(C(=O)OC)cc42)cc1)C[C@H]3CCl [Example 22, (S,S)-3,3'-[3,3 '-(1,4-phenylene)diacryloy]-bis[1-chloromethyl-5-hydroxy-1,2,3,6-tetrahydropyrrolo[3,2-e]indole-7-methoxycarbonyl]] | – | 0.0227 ng/mL (≈ 0.0305 nM) | – |
